The values below come from patent US20070149439A1 (priority 2001, published 2007).

For experiment [1], the system named is cerebral cortical precursors of E15.5 rat embryos. The experiment in a line: [3H]thymidine incorporation (DNA synthesis) in cerebral hemispheres after transuterine intracerebroventricular injection. Type of experiment: in vivo. As to conditions: vs vehicle. As to the method:
Transuterine intracerebroventricular injection. Intraventricular injection was done as described. […] Dye enhancement of the ventricles indicated successful injections.
Quantification. Newly synthesized DNA was measured after TCA precipitation. Tissues were homogenized in 10 volumes of distilled water. After reserving aliquots to assess total tissue [^3H]dT uptake, DNA was precipitated with 10% TCA, centrifuged, and washed twice in 10% TCA. Pellets were dissolved and counted along with aliquots by scintillation spectrometry.

In experiment [2] the target is T1, PAC1 (Homo sapiens, UniProt P41586).
T1 sequence (P41586 21-468): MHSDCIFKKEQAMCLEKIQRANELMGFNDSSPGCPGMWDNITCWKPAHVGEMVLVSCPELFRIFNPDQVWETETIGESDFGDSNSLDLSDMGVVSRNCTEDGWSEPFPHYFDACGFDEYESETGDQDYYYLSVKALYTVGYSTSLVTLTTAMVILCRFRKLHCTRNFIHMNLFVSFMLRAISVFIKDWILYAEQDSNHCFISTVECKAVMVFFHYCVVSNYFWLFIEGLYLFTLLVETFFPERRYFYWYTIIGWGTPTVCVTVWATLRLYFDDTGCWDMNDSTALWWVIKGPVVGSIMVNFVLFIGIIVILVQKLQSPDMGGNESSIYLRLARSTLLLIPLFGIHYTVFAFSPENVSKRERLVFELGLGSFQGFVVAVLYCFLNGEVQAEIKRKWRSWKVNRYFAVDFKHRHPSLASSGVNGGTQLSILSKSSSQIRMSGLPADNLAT
Particulars: higher affinity than PACAP6-38; cited from earlier work.

Experiment [3] has as its system cortical precursors in culture. Particulars: cited from earlier work.
Experiment [4] has as its system VZ precursors of E15.5 rat cortex. The text has this: (§1) For BrdU immunohistochemistry, E15.5 and E18.5 tissues were fixed in 4% PFA, paraffin-embedded, and sectioned (4 μm) coronally. E20.5 tissues were perfusion-fixed in 2% PFA, cryoprotected, and sectioned at 15 μm. The tissues were immunostained. Then, the tissues were double-labeled with antibodies to neuron specific markers TuJ1 (1:200, Biogenesis, Poole, United Kingdom), tau (1:200, I. Fischer, Med. Coll. Penn.) and MAP2c (1:2000, I. Fischer) or glial markers, vimentin (1:4, Roche) and GFAP (1:1000, Sigma), visualizing with Texas Red for BrdU and FITC for phenotypic markers. TUNEL assay was done according to the manufacturer (Oncor, Gaithersburg, Md.) on sections adjacent to those used for BrdU.
(§2) Transuterine intracerebroventricular injection. Intraventricular injection was done as described. Following anesthesia (ketamine 30 mg per kg/xylazine 3 mg per kg) and laparotomy of E15.5 pregnant dams, 1 μl of vehicle or factors and 0.05% fast green was delivered into the embryonic lateral ventricle through the uterine wall, using drawn capillary pipettes. Dye enhancement of the ventricles indicated successful injections. After closure, dams were injected subcutaneously with markers of DNA synthesis, [^3H]dT (4 μCi/g, NEN) and BrdU (100 μg/g) at 3 h and sacrificed at 4 h. One embryonic hemisphere was assayed for [^3H]dT incorporation and the other for immunohistochemistry.
(§3) For labeling index, the analysis was done in the dorsolateral sector of 3 non-adjacent coronal cortex sections per brain, using a camera lucida (Zeiss, Thornwood, N.Y.) under 400× magnification. For E15.5 sections, BrdU(+) nuclei and total nuclei were scored within a 100 μm×100, μm sector based on the ventricular surface extending to the pial surface. BrdU(+) cells in the CP were counted in centrally located sectors extending 100 μm (E18.5 sections) or 200 μm (E20.5 sections) in the mediolateral dimension.

For experiment [5], the system named is BrdU-labeled precursors in the CP.
Description: as §1, §2, §3

The mark [6] stands for this setting: injectant volume 1 μl ICV at E15.5, 4 h.

Several values for one entry are separate records, joined by “and”; a condition that tells them apart may be missing. Identical values can stand only once. Like-named read-outs stand apart in the source and are kept apart here. Where no end group is shown, it is not given here.

In the case of “PACAP6-38: specific PAC1 antagonist (FTDSYSRYRKQMAVKKYLAAVLGKRYKQRVKNK; ends and bridges not checked)”, in experiment [1] (setting [6]), the “% Stimulation of DNA synthesis ([3H]dT incorporation)” value (“% Stimulation of DNA synthesis” for short) was 10±2.2%.
On to “M65: newly defined PAC1 antagonist derived from sand fly peptide maxadilan”, for which the “% Stimulation of DNA synthesis” value is 14% and 13.4 ± 4.6 % in experiment [1] (setting [6]); 20% and 20.1 ± 7.0 % in experiment [1] (injectant volume 2 μl (twice the dose) ICV at E15.5, 4 h). Moreover, the “affinity for PAC1 relative to PACAP6-38” value in experiment [2] is reported as 6 fold.
Regarding `Nc1ncnc2c1ncn2[C@@H]1O[C@@H]2CO[P@@](O)(=S)O[C@H]2[C@H]1O` [Rp-cAMPS], the “% Stimulation of DNA synthesis” value in experiment [1] (setting [6]) worked out at 28.3 ± 3.1 %.
For the molecule “Pituitary Adenylate Cyclase-Activating Polypeptide [PACAP]”, the “effect on proliferative effects of mitogenic IGF-I, bFGF and EGF” value in experiment [3] is “inhibited proliferative effects”. In experiment [4] (4 hours after ICV injection at E15.5, n=6/group), the “Labeling Index (LI), BrdU(+) nuclei in VZ” value came out at 26±1.3%. Further, the “decrease of Labeling Index / mitotic labeling” value in experiment [4] (4 hours after ICV injection at E15.5, vs vehicle) was 25% and 26%. In addition, the “less mitotically labeled (BrdU+) cells in the CP” value in experiment [5] (3 days (E18.5) after PACAP administration at E15.5) was 38%; in experiment [5] (5 days (E20.5) after PACAP administration at E15.5) it was 33%. For the same molecule, the “decrease of DNA synthesis, [3H]dT incorporation into cerebral hemispheres” value in experiment [1] (PACAP 10^-5 M, ICV into E15.5 rat lateral ventricle, four hours later) is 24%.
